Laboratory results reported in ChEMBL document CHEMBL1138233, “New iantherans from the marine sponge Ianthella quadrangulata: novel agonists of the P2Y(11) receptor” (J Med Chem, 2007).
The source made the active and inactive calls. The calls are words filed in the database; no cut-off is given here.

Legend:
P2Y purinoceptor 11 = biological target: T1, P2Y purinoceptor 11 (Homo sapiens, UniProt Q96G91); test: Agonist activity at P2Y11 receptor expressed in 1321N1 cells assessed as cytosolic calcium level; type: functional, cell-based
T1 sequence (Q96G91 whole entry): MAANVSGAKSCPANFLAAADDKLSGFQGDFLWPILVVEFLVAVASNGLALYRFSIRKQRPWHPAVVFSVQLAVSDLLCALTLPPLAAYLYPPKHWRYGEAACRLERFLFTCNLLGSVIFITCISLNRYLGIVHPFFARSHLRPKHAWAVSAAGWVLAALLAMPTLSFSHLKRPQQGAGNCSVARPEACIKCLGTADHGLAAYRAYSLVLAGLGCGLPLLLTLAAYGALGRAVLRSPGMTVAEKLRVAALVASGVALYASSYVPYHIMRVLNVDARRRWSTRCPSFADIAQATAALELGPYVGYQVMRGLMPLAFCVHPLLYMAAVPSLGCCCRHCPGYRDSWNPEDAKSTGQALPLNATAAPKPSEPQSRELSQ

[1] = Toxicity against 1321N1 cells expressing P2Y2 receptor at 1 to 10 uM; type: cell-based; conditions: human, 1321-n1, 10 µM
P2Y purinoceptor 2 [2] = biological target: T2, P2Y purinoceptor 2 (Homo sapiens, UniProt P41231); test: Agonist activity at P2Y2 receptor expressed in 1321N1 cells assessed as cytosolic calcium level at 10 uM relative to GTPgammaS control; type: functional, cell-based
T2 sequence (P41231 whole entry): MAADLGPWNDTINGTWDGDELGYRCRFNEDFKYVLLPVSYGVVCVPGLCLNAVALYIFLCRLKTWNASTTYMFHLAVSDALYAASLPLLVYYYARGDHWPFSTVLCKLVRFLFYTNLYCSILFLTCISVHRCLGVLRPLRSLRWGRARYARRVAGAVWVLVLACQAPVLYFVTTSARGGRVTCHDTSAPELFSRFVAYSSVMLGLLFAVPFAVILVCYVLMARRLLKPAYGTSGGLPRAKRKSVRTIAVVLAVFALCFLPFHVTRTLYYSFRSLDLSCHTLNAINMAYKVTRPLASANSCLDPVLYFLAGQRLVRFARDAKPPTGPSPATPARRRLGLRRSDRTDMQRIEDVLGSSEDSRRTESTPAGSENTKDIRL

[3] = biological target: T3, P2Y purinoceptor 11 (Homo sapiens) (UniProt Q96G91); test: Agonist activity at P2Y11 receptor expressed in 1321N1 cells assessed as cytosolic calcium level at 10 uM relative to GTPgammaS control; type: functional, cell-based
T3 sequence (whole entry): T1 sequence (Q96G91 whole entry)

[4] = Toxicity against 1321N1 cells expressing P2Y11 receptor at 1 to 10 uM; type: cell-based; conditions: human, 1321-n1, 10 µM
[5] = Toxicity against 1321N1 cells expressing P2Y1 receptor at 1 to 10 uM; type: cell-based; conditions: human, 1321-n1, 10 µM
[6] = biological target: P2Y purinoceptor 1 (Homo sapiens) (UniProt P47900); test: Agonist activity at P2Y1 receptor expressed in 1321N1 cells assessed as cytosolic calcium level at 10 uM relative to GTPgammaS control; type: functional, cell-based
P2Y purinoceptor 1 (Homo sapiens), sequence (P47900 whole entry): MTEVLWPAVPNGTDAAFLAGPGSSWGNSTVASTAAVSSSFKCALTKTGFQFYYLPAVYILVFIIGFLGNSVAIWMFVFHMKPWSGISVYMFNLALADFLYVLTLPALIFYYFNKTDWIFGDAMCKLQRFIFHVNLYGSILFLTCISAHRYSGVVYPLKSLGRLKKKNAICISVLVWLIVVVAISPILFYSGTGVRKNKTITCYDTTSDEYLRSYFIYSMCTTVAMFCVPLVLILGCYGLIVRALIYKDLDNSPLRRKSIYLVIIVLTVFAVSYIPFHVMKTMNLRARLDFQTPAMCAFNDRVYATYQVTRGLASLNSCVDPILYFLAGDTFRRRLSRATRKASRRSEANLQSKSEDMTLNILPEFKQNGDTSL

[7] = biological target: T3, P2Y purinoceptor 11 (Homo sapiens); test: Agonist activity at P2Y11 receptor expressed in 1321N1 cells assessed as calcium mobilization in presence of 10 uM NF340 at 1 uM; type: functional, cell-based
[8] = biological target: P2Y purinoceptor 1 (Homo sapiens) (UniProt P47900); test: Agonist activity at P2Y1 receptor expressed in 1321N1 cells assessed as cytosolic calcium level at 1 uM relative to GTPgammaS control; type: functional, cell-based
P2Y purinoceptor 2 [9] = biological target: T2, P2Y purinoceptor 2; test: Agonist activity at P2Y2 receptor expressed in 1321N1 cells assessed as cytosolic calcium level at 1 uM relative to GTPgammaS control; type: functional, cell-based
[10] = biological target: T3, P2Y purinoceptor 11 (Homo sapiens); test: Agonist activity at P2Y11 receptor expressed in 1321N1 cells assessed as cytosolic calcium level at 1 uM relative to GTPgammaS control; type: functional, cell-based
[11] = biological target: T3, P2Y purinoceptor 11 (Homo sapiens); test: Agonist activity at P2Y11 receptor expressed in 1321N1 cells assessed as calcium mobilization in presence of 10 uM NF340 at 3.6 uM; type: functional, cell-based
P2Y purinoceptor 2 [12] = biological target: T2, P2Y purinoceptor 2; test: Agonist activity at P2Y2 receptor expressed in 1321N1 cells assessed as cytosolic calcium level; type: functional, cell-based

## Nc1ncnc2c1ncn2[C@@H]1O[C@H](CO[P@](=O)(O)O[P@](=O)(O)O[P@@](=O)(O)S)[C@@H](O)[C@H]1O
P2Y purinoceptor 11
  EC50: 63.1 nM

## COc1c(Br)cc(/C=C(\OS(=O)(=O)[O-])C(=O)O)cc1Br.[Na+]
[1]
  Activity: Non-toxic
P2Y purinoceptor 2 [2]
  Activity: < 37.5%
[3]
  Activity: < 37.5%
[4]
  Activity: Non-toxic
[5]
  Activity: Non-toxic
[6]
  Activity: < 37.5%

## COc1c(Br)cc(CC(=O)O)cc1Br
[1]
  Activity: Non-toxic
P2Y purinoceptor 2 [2]
  Activity: < 37.5%
[3]
  Activity: < 37.5%
[4]
  Activity: Non-toxic
[5]
  Activity: Non-toxic
[6]
  Activity: < 37.5%

## O=C(O)c1c(-c2ccc(O)c(Br)c2)oc2c(Br)cc(/C=C(OS(=O)(=O)[O-])/C(=C/c3cc(Br)c4oc(-c5ccc(O)c(Br)c5)cc4c3)OS(=O)(=O)[O-])cc12.[Na+].[Na+] [8-CARBOXY-ISO-IANTHERAN A]
P2Y purinoceptor 11
  EC50: 479 nM
[1]
  Activity: Non-toxic
P2Y purinoceptor 2 [2]
  Activity: < 5%
[7]
  Activity: inactive
[8]
  Activity: < 5%
P2Y purinoceptor 2 [9]
  Activity: < 5%
[10]
  Activity: 94.6%
[3]
  Activity: 114%
[4]
  Activity: Non-toxic
[5]
  Activity: Non-toxic
[6]
  Activity: < 5%

## O=S(=O)([O-])OC(=C\c1cc(Br)c2oc(-c3ccc(O)c(Br)c3)cc2c1)/C(=C/c1cc(Br)c2oc(-c3ccc(O)c(Br)c3)cc2c1)OS(=O)(=O)[O-].[Na+].[Na+] [ISO-IANTHERAN A]
P2Y purinoceptor 11
  EC50: 1290 nM
[1]
  Activity: Non-toxic
P2Y purinoceptor 2 [2]
  Activity: Active
[11]
  Activity: inactive
[10]
  Activity: Active
[3]
  Activity: Active
[4]
  Activity: Non-toxic
[5]
  Activity: Non-toxic
[6]
  Activity: Active

## O=c1ccn([C@@H]2O[C@H](COP(=O)(O)OP(=O)(O)OP(=O)(O)O)[C@@H](O)[C@H]2O)c(=O)[nH]1 [URIDINE TRIPHOSPHATE]
P2Y purinoceptor 2 [12]
  EC50: 110 nM
